From patent US20110257208A1, “COMPOUNDS USEFUL AS FAAH MODULATORS AND USES THEREOF” (priority 2008, published 2011)

Biological target: T1, hFAAH (Homo sapiens, UniProt O00519)
T1 construct: expressed in transfected cells; host or cells: HEK293-TRex (Invitrogen) stably transfected with hFAAH in the pcDNA5-Tet-off vector, or T84 human colon epithelial cells (endogenous hFAAH); used as a microsomal preparation
T1 sequence (O00519 1-579): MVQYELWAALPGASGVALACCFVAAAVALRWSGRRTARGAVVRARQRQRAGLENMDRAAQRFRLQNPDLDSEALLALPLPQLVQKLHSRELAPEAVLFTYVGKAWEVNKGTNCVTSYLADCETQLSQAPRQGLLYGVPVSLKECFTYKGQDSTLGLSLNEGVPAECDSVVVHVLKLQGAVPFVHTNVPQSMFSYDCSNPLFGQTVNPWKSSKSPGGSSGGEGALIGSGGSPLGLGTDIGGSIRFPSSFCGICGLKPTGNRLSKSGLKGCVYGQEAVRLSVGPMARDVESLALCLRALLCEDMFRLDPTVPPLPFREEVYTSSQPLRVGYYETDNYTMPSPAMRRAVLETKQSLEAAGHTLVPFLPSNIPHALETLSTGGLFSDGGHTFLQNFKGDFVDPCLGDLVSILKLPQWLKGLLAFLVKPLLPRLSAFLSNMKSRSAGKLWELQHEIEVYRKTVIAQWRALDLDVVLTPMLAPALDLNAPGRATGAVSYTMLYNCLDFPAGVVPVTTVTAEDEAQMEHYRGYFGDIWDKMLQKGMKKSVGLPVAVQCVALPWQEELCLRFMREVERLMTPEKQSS
Assay: Fluorimetric assay with hFAAH microsomes (enzymatic, fluorescence based)
Type: biochemical
Settings: compound at 1 uM, AA-AMC substrate
Procedure: Human cell line T84 (human colon epithelial cells), which expresses endogenous hFAAH, or HEK293-TRex cells (Invitrogen) stably transfected with hFAAH in the pcDNA5-Tet-off vector are cultured in medium containing DMEM, 10% FBS penicillin/streptomycin, glutamax, 200 μg/ml hygromycin and 0.5 μg/ml blasticidin. Cell collection is done 24 h after induction with doxycycline by first washing the cells with cold PBS and then incubating them with Versene before centrifugation. Cell pellets are then stored at −80° C. until needed. For homogenization, the cell pellets are thawed on ice […] and resuspended in homogenization buffer (50 mM HEPES (pH 7.4), 1 mM EDTA, 1 μM Pepstatin A, 100 μM Leupeptin, 0.1 mg/mL aprotinin). Cell suspensions are then homogenized on ice using the Polytron 1200 C at setting 6 for three 30-second intervals with 30-second rests. The suspension is centrifuged at 1000 g for 10 minutes at 4° C. and the supernatant is collected and further centrifuged at 24000 rpm for 30 minutes at 4° C. using an ultracentrifuge. Pellets are resuspended by adding in cold microsomal buffer (50 mM HEPES (pH 7.4) and 1 mM EDTA) and sheared through a 23-gauge needle five times, keeping the suspension on ice. Protein concentrations are determined using the BCA assay and aliquoted preparations are stored at −80° C. until needed.
Compound potency against hFAAH is determined using an enzymatic assay with a fluorescence readout. Briefly, experiments were carried out in a 96-well plate format (Corning Costar, # 3370) with a total well volume of 160 μL with components added in the following order: assay buffer (50 mM HEPES (pH 7.4), 1 mM EDTA, 1.4 mg/mL BSA), compound solutions (7 different concentrations per compound in duplicate), microsomal enzyme preparation (10 μg per well) and substrate [AA-AMC (arachadonyl 7-amino 4-methyl coumarin amide), 2 μM]. After a brief shaking, a kinetic read of the plate is obtained using a Tecan Safire II in kinetic mode for 275 cycles with excitation and emission wavelengths of 355 and 460 nm, respectively. Raw data is then processed and analyzed using Assay Explorer and GraphPad Prism.
The following compounds have been or can be prepared according to the methods of the invention. An enzymatic (fluorescence based) assay is performed as described above. In Table 1, activity of each compound is expressed as follows: • ++++ % Inhibition >75% • +++ % Inhibition >50% • ++ % Inhibition >25% • + % Inhibition <25%

Row | inhibition at 1 µM | Compound
1 | > 25% | COc1ccccc1S(=O)(=O)N1Cc2ncnc(Nc3cnc4ccccc4c3)c2C1 [Compound 73, [6-(2-Methoxy-benzenesulfonyl)-6,7-dihydro-5H-pyrrolo[3,4-d]pyrimidin-4-yl]-quinolin-3-yl-amine]
2 | > 25% | Cc1nc(C(F)(F)F)ccc1CN1Cc2ncnc(Nc3cnc4ccccc4c3)c2C1 [Compound 74, [6-(2-Methyl-6-trifluoromethyl-pyridin-3-ylmethyl)-6,7-dihydro-5H-pyrrolo[3,4-d]pyrimidin-4-yl]-quinolin-3-yl-amine]
3 | > 25% | c1ccc2ncc(Nc3ncnc4c3CN(Cc3cscn3)C4)cc2c1 [Compound 75, Quinolin-3-yl-(6-thiazol-4-ylmethyl-6,7-dihydro-5H-pyrrolo[3,4-d]pyrimidin-4-yl)-amine]
4 | > 25% | c1ccc2ncc(Nc3ncnc4c3CN(Cc3nccs3)C4)cc2c1 [Compound 76, Quinolin-3-yl-(6-thiazol-2-ylmethyl-6,7-dihydro-5H-pyrrolo[3,4-d]pyrimidin-4-yl)-amine]
5 | > 50% | Cc1csc(CN2Cc3ncnc(Nc4cnc5ccccc5c4)c3C2)n1 [Compound 77, [6-(4-Methyl-thiazol-2-ylmethyl)-6,7-dihydro-5H-pyrrolo[3,4-d]pyrimidin-4-yl]-quinolin-3-yl-amine]
6 | > 75% | Cc1cnccc1CN1Cc2ncnc(Nc3cnc4ccccc4c3)c2C1 [Compound 78, [6-(3-Methyl-pyridin-4-ylmethyl)-6,7-dihydro-5H-pyrrolo[3,4-d]pyrimidin-4-yl]-quinolin-3-yl-amine]
7 | < 25% | Cc1cccnc1CN1Cc2ncnc(Nc3cnc4ccccc4c3)c2C1 [Compound 79, [6-(3-Methyl-pyridin-2-ylmethyl)-6,7-dihydro-5H-pyrrolo[3,4-d]pyrimidin-4-yl]-quinolin-3-yl-amine]
8 | > 75% | Fc1ccccc1CN1Cc2ncnc(Nc3cnc4ccccc4c3)c2C1 [Compound 80, [6-(2-Fluoro-benzyl)-6,7-dihydro-5H-pyrrolo[3,4-d]pyrimidin-4-yl]-quinolin-3-yl-amine]
9 | > 25% | c1ccc2ncc(Nc3ncnc4c3CN(Cc3cncs3)C4)cc2c1 [Compound 81, Quinolin-3-yl-(6-thiazol-5-ylmethyl-6,7-dihydro-5H-pyrrolo[3,4-d]pyrimidin-4-yl)-amine]
10 | < 25% | O=S(=O)(CCc1ccccc1)N1Cc2ncnc(Nc3cnc4ccccc4c3)c2C1 [Compound 82, [6-(2-Phenyl-ethanesulfonyl)-6,7-dihydro-5H-pyrrolo[3,4-d]pyrimidin-4-yl]-quinolin-3-yl-amine]
11 | > 75% | COc1ccccc1CN1Cc2ncnc(Nc3cnc4ccccc4c3)c2C1 [Compound 83, [6-(2-Methoxy-benzyl)-6,7-dihydro-5H-pyrrolo[3,4-d]pyrimidin-4-yl]-quinolin-3-yl-amine]
12 | > 75% | Clc1ccccc1CN1Cc2ncnc(Nc3cnc4ccccc4c3)c2C1 [Compound 84, [6-(2-Chloro-benzyl)-6,7-dihydro-5H-pyrrolo[3,4-d]pyrimidin-4-yl]-quinolin-3-yl-amine]
13 | > 50% | c1ccc2ncc(Nc3ncnc4c3CN(Cc3ccnc5ccccc35)C4)cc2c1 [Compound 85, Quinolin-3-yl-(6-quinolin-4-ylmethyl-6,7-dihydro-5H-pyrrolo[3,4-d]pyrimidin-4-yl)-amine]
14 | > 75% | Cc1ccoc1CN1Cc2ncnc(Nc3cnc4ccccc4c3)c2C1 [Compound 86, [6-(3-Methyl-furan-2-ylmethyl)-6,7-dihydro-5H-pyrrolo[3,4-d]pyrimidin-4-yl]-quinolin-3-yl-amine]
15 | > 75% | Cc1cccc(CN2Cc3ncnc(Nc4cnc5ccccc5c4)c3C2)c1C [Compound 87, [6-(2,3-Dimethyl-benzyl)-6,7-dihydro-5H-pyrrolo[3,4-d]pyrimidin-4-yl]-quinolin-3-yl-amine]
16 | > 50% | Cc1cccc(C)c1CN1Cc2ncnc(Nc3cnc4ccccc4c3)c2C1 [Compound 88, [6-(2,6-Dimethyl-benzyl)-6,7-dihydro-5H-pyrrolo[3,4-d]pyrimidin-4-yl]-quinolin-3-yl-amine]

Further lines, the compound ahead of its results:

Row | Compound | inhibition at 1 µM
17 | Cc1nc(C)c(S(=O)(=O)N2Cc3ncnc(Nc4cnc5ccccc5c4)c3C2)s1 [Compound 61, [6-(2,4-Dimethyl-thiazole-5-sulfonyl)-6,7-dihydro-5H-pyrrolo[3,4-d]pyrimidin-4-yl]-quinolin-3-yl-amine] | > 50%
18 | COC(=O)c1cc(S(=O)(=O)N2Cc3ncnc(Nc4cnc5ccccc5c4)c3C2)oc1C [Compound 62, 2-Methyl-5-[4-(quinolin-3-ylamino)-5,7-dihydro-pyrrolo[3,4-d]pyrimidine-6-sulfonyl]-furan-3-carboxylic acid methyl ester] | > 25%
19 | O=S(=O)(Cc1ccccc1)N1Cc2ncnc(Nc3cnc4ccccc4c3)c2C1 [Compound 63, (6-Phenylmethanesulfonyl-6,7-dihydro-5H-pyrrolo[3,4-d]pyrimidin-4-yl)-quinolin-3-yl-amine] | < 25%
20 | O=S(=O)(C1CCCCC1)N1Cc2ncnc(Nc3cnc4ccccc4c3)c2C1 [Compound 64, (6-Cyclohexanesulfonyl-6,7-dihydro-5H-pyrrolo[3,4-d]pyrimidin-4-yl)-quinolin-3-yl-amine] | > 50%
21 | O=S(=O)(c1ccccc1)N1Cc2ncnc(Nc3cnc4ccccc4c3)c2C1 [Compound 65, (6-Benzenesulfonyl-6,7-dihydro-5H-pyrrolo[3,4-d]pyrimidin-4-yl)-quinolin-3-yl-amine] | > 25%
22 | Cc1ncsc1CN1Cc2ncnc(Nc3cnc4ccccc4c3)c2C1 [Compound 66, [6-(4-Methyl-thiazol-5-ylmethyl)-6,7-dihydro-5H-pyrrolo[3,4-d]pyrimidin-4-yl]-quinolin-3-yl-amine] | > 75%
23 | Cc1noc(C)c1CN1Cc2ncnc(Nc3cnc4ccccc4c3)c2C1 [Compound 67, [6-(3,5-Dimethyl-isoxazol-4-ylmethyl)-6,7-dihydro-5H-pyrrolo[3,4-d]pyrimidin-4-yl]-quinolin-3-yl-amine] | > 25%
24 | COC(=O)c1ccc(S(=O)(=O)N2Cc3ncnc(Nc4cnc5ccccc5c4)c3C2)o1 [Compound 68, 5-[4-(Quinolin-3-ylamino)-5,7-dihydro-pyrrolo[3,4-d]pyrimidine-6-sulfonyl]-furan-2-carboxylic acid methyl ester] | > 75%
25 | Cc1ncc(CN2Cc3ncnc(Nc4cnc5ccccc5c4)c3C2)s1 [Compound 69, [6-(2-Methyl-thiazol-5-ylmethyl)-6,7-dihydro-5H-pyrrolo[3,4-d]pyrimidin-4-yl]-quinolin-3-yl-amine] | > 50%
26 | O=S(=O)(c1ccccc1OC(F)(F)F)N1Cc2ncnc(Nc3cnc4ccccc4c3)c2C1 [Compound 70, Quinolin-3-yl-[6-(2-trifluoromethoxy-benzenesulfonyl)-6,7-dihydro-5H-pyrrolo[3,4-d]pyrimidin-4-yl]-amine] | > 25%
27 | O=S(=O)(c1ccccc1F)N1Cc2ncnc(Nc3cnc4ccccc4c3)c2C1 [Compound 71, [6-(2-Fluoro-benzenesulfonyl)-6,7-dihydro-5H-pyrrolo[3,4-d]pyrimidin-4-yl]-quinolin-3-yl-amine] | > 25%
28 | O=S(=O)(c1ccccc1Cl)N1Cc2ncnc(Nc3cnc4ccccc4c3)c2C1 [Compound 72, [6-(2-Chloro-benzenesulfonyl)-6,7-dihydro-5H-pyrrolo[3,4-d]pyrimidin-4-yl]-quinolin-3-yl-amine] | > 50%
